Results published in the kinase profiling compilation of Christmann-Franck et al. (2016).

Key:
Experiment in all cases: KINOMEscan competition binding
Details in all cases: compound 2.0 µM
AAK1 (human) = AAK1 (human) (UniProt Q2M2I8)
[1] = test system: ABL1 (human), P00519 [E255K]
ACVR1 (human) = ACVR1 (human) (UniProt Q04771)
ACVRL1 (human) = ACVRL1 (human) (UniProt P37023)
AKT3 (human) = AKT3 (human) (UniProt Q9Y243)
ALK (human) = ALK (human) (UniProt Q9UM73)
AXL (human) = AXL (human) (UniProt P30530)
BMPR1B (human) = BMPR1B (human) (UniProt O00238)
BMPR2 (human) = BMPR2 (human) (UniProt Q13873)
CAMK1G (human) = CAMK1G (human) (UniProt Q96NX5)
Sequence of CAMK1G (human) (Q96NX5 whole entry, looked up): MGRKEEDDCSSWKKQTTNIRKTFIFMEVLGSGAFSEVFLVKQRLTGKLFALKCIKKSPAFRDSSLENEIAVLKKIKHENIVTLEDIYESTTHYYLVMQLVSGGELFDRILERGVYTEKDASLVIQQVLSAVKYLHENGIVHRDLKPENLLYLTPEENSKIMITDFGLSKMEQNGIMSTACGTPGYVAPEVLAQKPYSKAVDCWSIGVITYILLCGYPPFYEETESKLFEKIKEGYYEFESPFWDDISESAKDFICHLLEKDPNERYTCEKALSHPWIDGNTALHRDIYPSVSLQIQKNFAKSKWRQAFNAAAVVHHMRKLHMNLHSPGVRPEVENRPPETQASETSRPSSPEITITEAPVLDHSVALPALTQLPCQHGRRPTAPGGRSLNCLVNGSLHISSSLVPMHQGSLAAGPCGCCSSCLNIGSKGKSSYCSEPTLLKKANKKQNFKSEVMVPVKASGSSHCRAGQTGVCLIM

CDK16 (human) = CDK16 (human) (UniProt Q00536)
CLK3 (human) = CLK3 (human) (UniProt P49761)
CLK4 (human) = CLK4 (human) (UniProt Q9HAZ1)
CSNK1A1L (human) = CSNK1A1L (human) (UniProt Q8N752)
Sequence of CSNK1A1L (human) (Q8N752 whole entry, looked up): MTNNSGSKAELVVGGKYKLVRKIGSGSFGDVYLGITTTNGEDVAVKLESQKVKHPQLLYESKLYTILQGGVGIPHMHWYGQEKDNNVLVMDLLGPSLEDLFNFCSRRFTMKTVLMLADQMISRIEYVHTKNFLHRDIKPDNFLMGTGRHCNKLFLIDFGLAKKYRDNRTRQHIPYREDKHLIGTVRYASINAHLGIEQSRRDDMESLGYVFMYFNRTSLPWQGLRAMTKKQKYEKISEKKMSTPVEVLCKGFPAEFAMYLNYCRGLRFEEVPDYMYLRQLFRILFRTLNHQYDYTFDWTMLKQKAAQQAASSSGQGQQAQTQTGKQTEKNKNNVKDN

FGFR4 (human) = FGFR4 (human) (UniProt P22455)
[2] = test system: FLT3 (human), P36888 [ITD]
FLT4 (human) = FLT4 (human) (UniProt P35916)
HIPK3 (human) = HIPK3 (human) (UniProt Q9H422)
IKBKE (human) = IKBKE (human) (UniProt Q14164)
[3] = target: JAK2 JH1 catalytic (human) (UniProt O60674)
[4] = test system: KIT (human), P10721 [A829P]
LRRK2 (human) = LRRK2 (human) (UniProt Q5S007)
MAK (human) = MAK (human) (UniProt P20794)
Sequence of MAK (human) (P20794 whole entry, looked up): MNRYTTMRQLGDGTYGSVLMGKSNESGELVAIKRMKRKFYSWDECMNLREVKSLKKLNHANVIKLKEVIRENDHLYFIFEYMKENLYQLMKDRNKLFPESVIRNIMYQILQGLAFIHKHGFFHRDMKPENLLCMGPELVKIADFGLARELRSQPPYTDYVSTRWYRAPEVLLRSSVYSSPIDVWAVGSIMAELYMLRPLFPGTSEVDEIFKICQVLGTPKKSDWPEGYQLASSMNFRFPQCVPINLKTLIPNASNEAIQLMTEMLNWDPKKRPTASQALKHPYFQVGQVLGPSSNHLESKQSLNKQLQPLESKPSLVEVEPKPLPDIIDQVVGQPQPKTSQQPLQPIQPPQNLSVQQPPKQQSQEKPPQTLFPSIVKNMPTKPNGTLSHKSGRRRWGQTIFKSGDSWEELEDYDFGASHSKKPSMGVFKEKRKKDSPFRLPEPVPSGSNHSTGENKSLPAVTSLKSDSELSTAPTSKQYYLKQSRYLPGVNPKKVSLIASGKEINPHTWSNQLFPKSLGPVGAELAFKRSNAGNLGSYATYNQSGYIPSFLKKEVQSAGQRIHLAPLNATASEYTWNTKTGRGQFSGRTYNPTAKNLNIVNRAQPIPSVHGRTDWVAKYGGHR

MAP2K1 (human) = MAP2K1 (human) (UniProt Q02750)
MAP2K7 (human) = MAP2K7 (human) (UniProt O14733)
MAP3K1 (human) = MAP3K1 (human) (UniProt Q13233)
MAP3K11 (human) = MAP3K11 (human) (UniProt Q16584)
Sequence of MAP3K11 (human) (Q16584 whole entry, looked up): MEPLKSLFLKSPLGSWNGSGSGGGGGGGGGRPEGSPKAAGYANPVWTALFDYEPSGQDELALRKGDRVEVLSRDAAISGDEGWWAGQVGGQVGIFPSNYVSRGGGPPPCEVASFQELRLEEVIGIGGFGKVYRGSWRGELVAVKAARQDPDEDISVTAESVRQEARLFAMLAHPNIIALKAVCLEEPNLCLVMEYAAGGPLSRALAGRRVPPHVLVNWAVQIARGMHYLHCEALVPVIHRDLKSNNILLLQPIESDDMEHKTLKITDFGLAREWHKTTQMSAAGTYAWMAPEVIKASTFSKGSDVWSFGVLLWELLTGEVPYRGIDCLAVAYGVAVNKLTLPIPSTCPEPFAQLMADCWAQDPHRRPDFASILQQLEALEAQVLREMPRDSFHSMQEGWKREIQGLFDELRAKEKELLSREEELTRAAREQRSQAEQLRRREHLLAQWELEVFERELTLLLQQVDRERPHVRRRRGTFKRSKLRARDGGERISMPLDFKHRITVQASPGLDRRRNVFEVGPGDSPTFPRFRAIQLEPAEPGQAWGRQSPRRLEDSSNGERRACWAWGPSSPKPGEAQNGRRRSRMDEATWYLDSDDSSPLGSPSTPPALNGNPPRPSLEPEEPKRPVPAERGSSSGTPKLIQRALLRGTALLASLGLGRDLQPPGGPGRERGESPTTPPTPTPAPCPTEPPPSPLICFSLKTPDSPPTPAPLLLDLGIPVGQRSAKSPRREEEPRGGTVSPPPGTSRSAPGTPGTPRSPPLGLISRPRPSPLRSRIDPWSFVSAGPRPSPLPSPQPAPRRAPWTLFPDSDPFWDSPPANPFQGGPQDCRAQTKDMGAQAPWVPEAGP

MAP3K12 (human) = MAP3K12 (human) (UniProt Q12852)
MAPK11 (human) = MAPK11 (human) (UniProt Q15759)
Sequence of MAPK11 (human) (Q15759 whole entry, looked up): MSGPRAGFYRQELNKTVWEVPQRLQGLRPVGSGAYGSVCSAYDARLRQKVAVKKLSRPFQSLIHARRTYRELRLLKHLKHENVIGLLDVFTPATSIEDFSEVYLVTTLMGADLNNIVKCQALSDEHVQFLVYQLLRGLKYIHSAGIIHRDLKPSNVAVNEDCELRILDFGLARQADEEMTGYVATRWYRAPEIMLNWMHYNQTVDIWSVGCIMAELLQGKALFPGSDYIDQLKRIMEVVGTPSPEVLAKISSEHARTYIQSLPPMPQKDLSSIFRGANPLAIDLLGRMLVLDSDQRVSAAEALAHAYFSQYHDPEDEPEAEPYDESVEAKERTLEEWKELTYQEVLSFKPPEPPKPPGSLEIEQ

MAPK9 (human) = MAPK9 (human) (UniProt P45984)
MST4 (human) = MST4 (human) (UniProt Q9P289)
NEK2 (human) = NEK2 (human) (UniProt P51955)
NIM1 (human) = NIM1 (human) (UniProt Q8IY84)
NTRK1 (human) = NTRK1 (human) (UniProt P04629)
PIK3CB (human) = PIK3CB (human) (UniProt P42338)
PIP4K2B (human) = PIP4K2B (human) (UniProt P78356)
PIP5K1C (human) = PIP5K1C (human) (UniProt O60331)
PRKCI (human) = PRKCI (human) (UniProt P41743)
SBK1 (human) = SBK1 (human) (UniProt Q52WX2)
SGK110 (human) = SGK110 (human) (UniProt P0C264)
SLK (human) = SLK (human) (UniProt Q9H2G2)
Sequence of SLK (human) (Q9H2G2 whole entry, looked up): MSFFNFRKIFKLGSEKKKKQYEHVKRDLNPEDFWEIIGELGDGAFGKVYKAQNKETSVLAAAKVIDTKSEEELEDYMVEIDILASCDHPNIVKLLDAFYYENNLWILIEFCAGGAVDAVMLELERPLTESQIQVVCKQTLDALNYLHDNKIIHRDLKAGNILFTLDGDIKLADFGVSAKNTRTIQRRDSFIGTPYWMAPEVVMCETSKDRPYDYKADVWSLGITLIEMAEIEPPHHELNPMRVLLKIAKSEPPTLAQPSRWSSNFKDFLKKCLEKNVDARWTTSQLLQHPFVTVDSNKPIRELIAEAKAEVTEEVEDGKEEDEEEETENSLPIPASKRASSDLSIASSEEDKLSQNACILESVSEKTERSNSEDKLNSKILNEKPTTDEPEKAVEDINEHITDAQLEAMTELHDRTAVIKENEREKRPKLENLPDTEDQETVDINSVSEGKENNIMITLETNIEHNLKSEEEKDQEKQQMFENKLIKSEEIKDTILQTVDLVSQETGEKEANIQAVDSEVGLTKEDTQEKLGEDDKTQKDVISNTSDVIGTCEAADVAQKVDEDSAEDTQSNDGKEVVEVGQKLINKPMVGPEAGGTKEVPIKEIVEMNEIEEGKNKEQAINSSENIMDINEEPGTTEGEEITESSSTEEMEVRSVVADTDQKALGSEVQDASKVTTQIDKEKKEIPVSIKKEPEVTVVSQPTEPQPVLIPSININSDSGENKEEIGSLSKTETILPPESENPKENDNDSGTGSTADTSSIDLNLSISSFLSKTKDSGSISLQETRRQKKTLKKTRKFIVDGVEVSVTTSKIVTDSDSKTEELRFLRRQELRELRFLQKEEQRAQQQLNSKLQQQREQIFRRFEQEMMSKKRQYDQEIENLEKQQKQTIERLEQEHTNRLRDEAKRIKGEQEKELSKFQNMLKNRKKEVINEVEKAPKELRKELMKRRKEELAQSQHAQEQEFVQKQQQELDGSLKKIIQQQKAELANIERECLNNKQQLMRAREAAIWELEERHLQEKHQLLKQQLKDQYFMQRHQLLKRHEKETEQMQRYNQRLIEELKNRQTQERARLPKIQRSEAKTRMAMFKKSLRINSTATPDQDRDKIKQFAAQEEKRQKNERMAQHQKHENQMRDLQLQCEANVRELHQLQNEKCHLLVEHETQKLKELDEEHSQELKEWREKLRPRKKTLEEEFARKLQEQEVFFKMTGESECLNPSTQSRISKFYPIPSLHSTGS

TNIK (human) = TNIK (human) (UniProt Q9UKE5)
TTK (human) = TTK (human) (UniProt P33981)

Sequence of AAK1 (human) (Q2M2I8 whole entry, looked up): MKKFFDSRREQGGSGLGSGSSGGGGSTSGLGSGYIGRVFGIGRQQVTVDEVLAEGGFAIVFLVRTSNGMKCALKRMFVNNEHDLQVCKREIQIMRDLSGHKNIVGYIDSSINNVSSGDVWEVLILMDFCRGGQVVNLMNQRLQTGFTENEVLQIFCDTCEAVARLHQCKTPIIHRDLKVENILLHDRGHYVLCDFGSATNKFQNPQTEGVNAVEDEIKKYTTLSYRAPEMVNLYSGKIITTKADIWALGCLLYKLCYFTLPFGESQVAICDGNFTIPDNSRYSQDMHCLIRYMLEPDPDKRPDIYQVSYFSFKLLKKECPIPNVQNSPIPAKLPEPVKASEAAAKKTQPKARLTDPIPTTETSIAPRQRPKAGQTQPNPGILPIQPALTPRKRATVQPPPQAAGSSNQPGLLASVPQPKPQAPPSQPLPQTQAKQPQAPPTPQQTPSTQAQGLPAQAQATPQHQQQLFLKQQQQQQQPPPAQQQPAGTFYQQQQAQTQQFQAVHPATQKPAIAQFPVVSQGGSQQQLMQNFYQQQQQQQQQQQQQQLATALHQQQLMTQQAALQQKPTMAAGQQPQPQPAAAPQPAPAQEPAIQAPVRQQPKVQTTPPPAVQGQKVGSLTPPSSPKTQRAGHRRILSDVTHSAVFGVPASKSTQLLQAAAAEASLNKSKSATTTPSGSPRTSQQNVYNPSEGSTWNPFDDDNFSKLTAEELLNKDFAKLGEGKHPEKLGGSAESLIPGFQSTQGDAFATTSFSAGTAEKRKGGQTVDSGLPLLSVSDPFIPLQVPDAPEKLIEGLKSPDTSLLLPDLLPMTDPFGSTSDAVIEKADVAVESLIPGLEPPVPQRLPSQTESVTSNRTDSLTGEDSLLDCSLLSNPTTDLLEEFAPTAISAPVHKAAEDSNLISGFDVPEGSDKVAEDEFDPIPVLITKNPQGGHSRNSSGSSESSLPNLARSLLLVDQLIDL

Which results are given for `N#Cc1ccc2ncnc(NCCc3ccc4ccccc4c3)c2c1`?
kinase still bound, per cent of control (AAK1 (human)): 86%; kinase still bound, per cent of control [1]: 100%; kinase still bound, per cent of control (ACVR1 (human)): 100%; kinase still bound, per cent of control (ACVRL1 (human)): 100%; kinase still bound, per cent of control (AKT3 (human)): 98%; kinase still bound, per cent of control (ALK (human)): 100%; kinase still bound, per cent of control (AXL (human)): 88%; kinase still bound, per cent of control (BMPR1B (human)): 90%; kinase still bound, per cent of control (BMPR2 (human)): 100%; kinase still bound, per cent of control (CAMK1G (human)): 86%; kinase still bound, per cent of control (CDK16 (human)): 100%; kinase still bound, per cent of control (CLK3 (human)): 93%; kinase still bound, per cent of control (CLK4 (human)): 60%; kinase still bound, per cent of control (CSNK1A1L (human)): 89%; kinase still bound, per cent of control (FGFR4 (human)): 100%; kinase still bound, per cent of control [2]: 87%; kinase still bound, per cent of control (FLT4 (human)): 100%; kinase still bound, per cent of control (HIPK3 (human)): 78%; kinase still bound, per cent of control (IKBKE (human)): 100%; kinase still bound, per cent of control [3]: 100%; kinase still bound, per cent of control [4]: 89%; kinase still bound, per cent of control (LRRK2 (human)): 85%; kinase still bound, per cent of control (MAK (human)): 99%; kinase still bound, per cent of control (MAP2K1 (human)): 96%; kinase still bound, per cent of control (MAP2K7 (human)): 94%; kinase still bound, per cent of control (MAP3K1 (human)): 92%; kinase still bound, per cent of control (MAP3K11 (human)): 89%; kinase still bound, per cent of control (MAP3K12 (human)): 100%; kinase still bound, per cent of control (MAPK11 (human)): 100%; kinase still bound, per cent of control (MAPK9 (human)): 97%; kinase still bound, per cent of control (MST4 (human)): 77%; kinase still bound, per cent of control (NEK2 (human)): 100%; kinase still bound, per cent of control (NIM1 (human)): 82%; kinase still bound, per cent of control (NTRK1 (human)): 100%; kinase still bound, per cent of control (PIK3CB (human)): 39%; kinase still bound, per cent of control (PIP4K2B (human)): 100%; kinase still bound, per cent of control (PIP5K1C (human)): 100%; kinase still bound, per cent of control (PRKCI (human)): 100%; kinase still bound, per cent of control (SBK1 (human)): 100%; kinase still bound, per cent of control (SGK110 (human)): 79%; kinase still bound, per cent of control (SLK (human)): 73%; kinase still bound, per cent of control (TNIK (human)): 97%; kinase still bound, per cent of control (TTK (human)): 75%
